Assay results published in patent publication US9394555B2, “Compositions comprising a polypeptide having cellulolytic enhancing activity and a dioxy compound and uses thereof” (priority 2010, dated 2016).
Where two headings read alike, the source gives them in different places.

Tests used:
[1] = target: T1, T. aurantiacus GH61A polypeptide (Thermoascus aurantiacus, UniProt G3XAP7, N13Y); assay type: biochemical; conditions: for hydrolysis of AVICEL in the presence of both T. aurantiacus GH61A polypeptide and dioxy compound relative to inhibition by the dioxy compound / dioxy compound effect(no GH61): dioxy compound 1 mM; for hydrolysis of AVICEL in the presence of both T. aurantiacus GH61A polypeptide and dioxy compound relative to inhibition by the dioxy compound: GH61A polypeptide 2 mg per g cellulose, cellulose 29.5 mg per ml; for dioxy compound effect(no GH61): AVICEL 29.5 mg cellulose per ml; for dioxy compound effect(no GH61) (Equation 3), ratio of percent conversion with/without dioxy compound: day 1 to day 8
Procedure: The cellulase preparation is designated herein as “Trichoderma reesei cellulase composition” unless specified otherwise.
Later experiments were mixed thoroughly prior to incubation in an IsoTemp incubator (Fisher Scientific, Hampton, N.H., USA) and prior to sampling for analysis, but were not continuously mixed.
Data were processed using MICROSOFT EXCEL™ software.

[2] = target: T1, T. aurantiacus GH61A polypeptide; experiment: Microcrystalline cellulose conversion assay II (Examples 10, 11), T. reesei CEL7A cellobiohydrolase I + A. oryzae CEL3A beta-glucosidase; assay type: biochemical; conditions: dioxy compound 0.1% w/w alone, no enzymes; 72 hours, 50° C.
Procedure: A 5% microcrystalline cellulose slurry was prepared by addition of 2.5 g of AVICEL® PH101 to a graduated 50 ml screw-cap conical tube followed by approximately 40 ml of deionized water. Each conical tube was then mixed thoroughly by shaking/vortexing, and adjusted to 50 ml total with deionized water and mixed again. For samples containing dioxy compounds, a similar slurry was prepared by the addition of 100 mg of solid dioxy compound and 2.5 g of AVICEL® PH101 to a graduated 50 ml screw-cap conical tube followed by approximately 40 ml of deionized water. Each conical tube was then mixed thoroughly by shaking/vortexing, and adjusted to 50 ml total with deionized water and mixed again.
The dioxy compounds assayed include caffeic acid, dichlorophenolindophenol (DCPIP), ethyl gallate, gallic acid, 3,4-dihydroxybenzoic acid, pyrocatechol, pyrogallol, sinapinic acid (3,5 dimethoxy-4-hydroxy cinnamic acid), and tannic acid.
In all cases, the contents of the tube (5% microcrystalline cellulose slurry with or without 0.2% dioxy compound) were then quickly transferred to a 100 ml beaker and stirred rapidly with a magnetic stirrer. Five hundred μl aliquots of the 5% AVICEL® slurry were pipetted into wells of a 2.0 ml 96-deepwell plate (Axygen, Union City, Calif.) using a 1000 μl micropipette with a wide aperture tip (end of tip cut off about 2 mm from the base). One hundred μl of deionized water and 300 μl of 3.33 mM MnSO4-500 mM sodium acetate pH 5 were then added to each well. Enzyme mixtures were prepared and then added simultaneously to all wells in a volume of 100 μl, for a total of 1 ml in each reaction. […] All experiments reported were performed in triplicate.
Primary analysis of the hydrolysis reactions was performed using an AGILENT® 1100 HPLC with CHEMSTATION® software equipped with an AMINEX™ HPX-87H column. After approximately 4 days, the deep-well plate was removed from the incubator and chilled overnight to 4° C. The plate was then mixed well by inversion and briefly centrifuged at 52×g in a SORVALL® RT7 centrifuge for 10 seconds. Samples were then mixed by pipetting, and 200 μl from each well were transferred to a MULTISCREEN® HV centrifuge filter plate assembly. The centrifuge filter plate assembly was centrifuged at 2000 rpm in a SORVALL® RT7 centrifuge for 20 minutes. […] Sugars were detected using a refractive index detector with quantification by integration compared to purified sugar standards.
All HPLC data processing was performed using MICROSOFT EXCEL™ software. […] In this assay only glucose was measured since beta-glucosidase was at high levels in all samples but the controls. The degree of cellulose conversion was calculated using Equation 1. Triplicate data points were averaged and standard deviation was calculated.
The microcrystalline cellulose hydrolysis assay was performed as described in Example 10.
Data were collected and analyzed, as described in Example 10, after 72 hours of incubation at 50° C.

[3] = system: T. terrestris GH61E polypeptide; experiment: Microcrystalline cellulose conversion assay I (Examples 8, 9) with T. terrestris GH61E polypeptide; assay type: biochemical, Thielavia terrestris; conditions: 96 hours
Procedure: (§1) A 5% microcrystalline cellulose slurry was prepared by addition of 2.5 g of AVICEL®PH101 (Sigma-Aldrich, St. Louis, Mo., USA) to a graduated 50 ml screw-cap conical tube followed by 15 ml of 1 M sodium acetate pH 5 and 1 ml of 100 mM MnSO4 and approximately 20 ml of deionizer water. Each conical tube was then mixed thoroughly by shaking/vortexing, and adjusted to 50 ml total with deionized water and mixed again. Contents of the tube were then quickly transferred to a 100 ml beaker and stirred rapidly with a magnetic stirrer. Five hundred μl aliquots of the 5% AVICEL® slurry were pipetted into wells of a 2.0 ml 96-deepwell plate (Axygen, Union City, Calif., USA) using a 1000 μl micropipette with a wide aperture tip (end of tip cut off about 2 mm from the base). Three hundred μl of either deionized water or a 1% dioxy compound solution (dissolved in deionized water) was added to each well.
(§2) The dioxy compounds assayed include caffeic acid (Sigma-Aldrich, St. Louis, Mo., USA), dichlorophenolindophenol (DCPIP; Sigma-Aldrich, St. Louis, Mo., USA), ethyl gallate (Sigma-Aldrich, St. Louis, Mo., USA), gallic acid (Sigma-Aldrich, St. Louis, Mo., USA), 3,4-dihydroxybenzoic acid (Sigma-Aldrich, St. Louis, Mo., USA), pyrocatechol (Sigma-Aldrich, St. Louis, Mo., USA), pyrogallol (Sigma-Aldrich, St. Louis, Mo., USA), sinapinic acid (3,5 dimethoxy-4-hydroxy cinnamic acid; Apin Chemicals LTD, Abingdon, UK), and tannic acid (Sigma-Aldrich, St. Louis, Mo., USA).
(§3) Enzyme mixtures were prepared and then added simultaneously to all wells in a volume of 200 μl, for a total of 1 ml in each reaction. […] All experiments reported were performed in triplicate.
(§4) After approximately 4 days, the deep-well plate was removed from the incubator and chilled overnight to 4° C. The plate was then mixed well by inversion and briefly centrifuged at 52×g in a SORVALL® RT7 centrifuge (Thermo Fisher Scientific, Waltham, Mass., USA) for 10 seconds. Samples were then mixed by pipetting, and 200 μl from each well were transferred to a MULTISCREEN® HV centrifuge filter plate assembly (Millipore, Bedford, Mass., USA). The centrifuge filter plate assembly was centrifuged at 2000 rpm in a SORVALL® RT7 centrifuge for 20 minutes. […] Sugars were detected using a refractive index detector (Agilent Technologies, Inc., Santa Clara, Calif., USA) with quantification by integration compared to purified sugar standards.
(§5) In this assay only glucose was measured since beta-glucosidase was at high levels in all samples but the controls.
(§6) A limit digest was performed to determine the total concentration accessible glucose equivalents using 100 mg of T. reesei cellulase (CELLIC™ CTec, Novozymes A/S, Bagsvaerd, Denmark) per gram cellulose, Triplicate data points were averaged and standard deviation was calculated.

[4] = system: T. aurantiacus CEL5A endoglucanase II and P. brasilianum CEL3A beta-glucosidase; experiment: Microcrystalline cellulose conversion assay I (Examples 8, 9) without GH61 polypeptide; assay type: biochemical, Thermoascus aurantiacus; Penicillium brasilianum; conditions: dioxy compound 0.3% w/w + endoglucanase II + beta-glucosidase (5 mg/g each), no GH61; 96 hours, at either 50° C. or 60° C.
Procedure: as §1, §2, §3, §4, §5, §6

[5] = AVICEL 14 mg cellulose per ml, dioxy compound 5 mM, T. aurantiacus GH61A polypeptide 0.4 mg per g cellulose, 1, 3, and 7 days
[6] = AVICEL, T. reesei cellulase composition, dioxy compound 5 mM, T. aurantiacus GH61A polypeptide present, day 1
[7] = AVICEL, T. reesei cellulase composition, dioxy compound 5 mM, T. aurantiacus GH61A polypeptide present, day 5
[8] = AVICEL, T. reesei cellulase composition, dioxy compound 5 mM, T. aurantiacus GH61A polypeptide present, day 8
[9] = AVICEL, T. reesei cellulase composition, dioxy compound 5 mM
[10] = AVICEL, T. reesei cellulase composition, dioxy compound 5 mM, day 5 (Example 24)
[11] = dioxy compound 0.3% w/w + T. terrestris GH61E polypeptide (10 mg/g) + endoglucanase II + beta-glucosidase (5 mg/g each), 50° C.
[12] = dioxy compound 0.3% w/w + T. terrestris GH61E polypeptide (10 mg/g) + endoglucanase II + beta-glucosidase (5 mg/g each), 60° C.

T1 sequence (G3XAP7 whole entry N13Y): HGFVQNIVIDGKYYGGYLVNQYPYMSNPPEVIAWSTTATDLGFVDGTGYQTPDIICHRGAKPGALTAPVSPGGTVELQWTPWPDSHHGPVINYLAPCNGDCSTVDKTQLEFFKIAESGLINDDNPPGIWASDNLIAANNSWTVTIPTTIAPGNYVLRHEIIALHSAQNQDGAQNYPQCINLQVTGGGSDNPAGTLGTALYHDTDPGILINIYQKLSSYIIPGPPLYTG

OCCCO [1,3-propanediol]
dioxy compound effect(+GH61) (Equation 4) [1, 5]: greater than 1 | GH61 effect (Equation 5) ([1]; AVICEL 14 mg cellulose per ml, dioxy compound 5 mM, T. aurantiacus GH61A polypeptide 0.4 mg per g cellulose, 1, 3, and 7 days, increasing as hydrolysis progressed): greater than 1 | dioxy compound effect(no GH61) (Equation 3) ([1]; AVICEL 14 mg cellulose per ml, dioxy compound 5 mM, 1, 3, and 7 days, especially early stages): greater than 1

CC(O)CC(C)O (centres unmarked) [2,4-pentanediol]
dioxy compound effect(+GH61) (Equation 4) [1, 5]: greater than 1 | GH61 effect (Equation 5) ([1]; AVICEL 14 mg cellulose per ml, dioxy compound 5 mM, T. aurantiacus GH61A polypeptide 0.4 mg per g cellulose, later hydrolysis stages (day 7)): greater than 1 | dioxy compound effect(no GH61) (Equation 3) ([1]; AVICEL 14 mg cellulose per ml, dioxy compound 5 mM, day 1): greater than 1

COc1cccc(OC)c1O [2,6-dimethoxyphenol]
hydrolysis of AVICEL in the presence of both T. aurantiacus GH61A polypeptide and dioxy compound relative to inhibition by the dioxy compound [1]: overall enhancement of cellulolysis

O=C(O)c1ccc(O)c(O)c1 [3,4-dihydroxybenzoic acid]
conversion (hydrolysis) of the microcrystalline cellulose [2]: no significant hydrolysis

CCOCC(O)CO (centres unmarked) [3-ethoxy-1,2-propanediol, 3-ethyoxy-1,2-propanediol]
dioxy compound effect(no GH61) ([1]; 3 days): 1.11±0.0167 | dioxy compound effect(no GH61) ([1]; 7 days): 1.20±0.0210

Oc1ccc(Cl)cc1O [4-chloro-1,2-benzenediol]
dioxy compound effect(+GH61) (Equation 4) [1, 6]: increased | dioxy compound effect(+GH61) (Equation 4) [1, 7]: less than 1 | dioxy compound effect(+GH61) (Equation 4) [1, 8]: less than 1 | dioxy compound effect(no GH61) (Equation 3), ratio of percent conversion with/without dioxy compound [1, 9]: less than 1 | GH61 effect (Equation 5), ratio of percent conversion with/without GH61 polypeptide ([1]; AVICEL, T. reesei cellulase composition, dioxy compound 5 mM, day 1 (Example 24)): greater than 1 | GH61 effect (Equation 5) [1, 10]: greater than 1

O=[N+]([O-])c1ccc(O)c(O)c1 [4-nitro-1,2-benzenediol]
dioxy compound effect(+GH61) (Equation 4) [1, 6]: less than 1 | dioxy compound effect(+GH61) (Equation 4) [1, 7]: less than 1 | dioxy compound effect(+GH61) (Equation 4) [1, 8]: less than 1 | dioxy compound effect(no GH61) (Equation 3), ratio of percent conversion with/without dioxy compound [1, 9]: less than 1 | GH61 effect (Equation 5) [1, 10]: greater than 1 | GH61 effect (Equation 5) ([1]; AVICEL, T. reesei cellulase composition, dioxy compound 5 mM, day 8 (Example 24)): greater than 1

O=C1C=CC(=Nc2cc(Cl)c(O)c(Cl)c2)C=C1 [DCPIP, dichlorophenolindophenol]
conversion (hydrolysis) of the microcrystalline cellulose [2]: no significant hydrolysis

O=C(O)/C=C/c1ccc(O)c(O)c1 [caffeic acid]
conversion of microcrystalline cellulose [3, 11]: 4.4±0.1% | conversion of microcrystalline cellulose [3, 12]: 7.0±0.1% | change in conversion of microcrystalline cellulose compared to the enzymes in the absence of the dioxy compound [4]: no significant change | conversion (hydrolysis) of the microcrystalline cellulose [2]: no significant hydrolysis

COC(=O)c1ccc(O)cc1 [methyl-4-hydroxybenzoate]
hydrolysis of AVICEL in the presence of both T. aurantiacus GH61A polypeptide and dioxy compound relative to inhibition by the dioxy compound [1]: overall enhancement of cellulolysis

COc1cc(C=CC(=O)O)cc(OC)c1O [sinapinic acid, 3,5 dimethoxy-4-hydroxy cinnamic acid]
conversion of microcrystalline cellulose [3, 11]: 6.3±0.1% | conversion of microcrystalline cellulose [3, 12]: 9.2±0.1% | change in conversion of microcrystalline cellulose compared to the enzymes in the absence of the dioxy compound [4]: no significant change

O=C(OC[C@H]1O[C@@H](OC(=O)c2cc(O)c(O)c(OC(=O)c3cc(O)c(O)c(O)c3)c2)[C@H](OC(=O)c2cc(O)c(O)c(OC(=O)c3cc(O)c(O)c(O)c3)c2)[C@@H](OC(=O)c2cc(O)c(O)c(OC(=O)c3cc(O)c(O)c(O)c3)c2)[C@@H]1OC(=O)c1cc(O)c(O)c(OC(=O)c2cc(O)c(O)c(O)c2)c1)c1cc(O)c(O)c(OC(=O)c2cc(O)c(O)c(O)c2)c1 [tannic acid]
conversion of microcrystalline cellulose [3, 11]: 5.7±0.1% | conversion of microcrystalline cellulose [3, 12]: 6.0±0.2% | change in conversion of microcrystalline cellulose compared to the enzymes in the absence of the dioxy compound [4]: no significant change

O=C(O)C(O)C(O)C(=O)O (centres unmarked) [tartrate, tartaric acid]
dioxy compound effect(no GH61) ([1]; 3 days): 0.984±0.00843 | dioxy compound effect(no GH61) ([1]; 7 days): 1.02±0.0573

B1: T. terrestris GH61E polypeptide: GH61E polypeptide having cellulolytic enhancing activity (SEQ ID NO: 8), recombinantly produced in Aspergillus oryzae JaL250 (protein, listed as Thielavia terrestris)
chain: MLANGAIVFLAAALGVSGHYTWPRVNDGADWQQVRKADNWQDNGYVGDVTSPQIRCFQATPSPAPSVLNTTAGSTVTYWANPDVYHPGPVQFYMARVPDGEDINSWNGDGAVWFKVYEDHPTFGAQLTWPSTGKSSFAVPIPPCIKSGYYLLRAEQIGLHVAQSVGGAQFYISCAQLSVTGGGSTEPPNKVAFPGAYSATDPGILINIYYPVPTSYQNPGPAVFSC
conversion of microcrystalline cellulose ([3]; T. terrestris GH61E polypeptide (10 mg per g cellulose) + endoglucanase II + beta-glucosidase (5 mg/g each), no dioxy compound, 50° C.): 2.8±0.1% | conversion of microcrystalline cellulose ([3]; T. terrestris GH61E polypeptide (10 mg per g cellulose) + endoglucanase II + beta-glucosidase (5 mg/g each), no dioxy compound, 60° C.): 3.1±0.1%
